PubChem BioAssay (NCI)
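Where inhibition never reached the appropriate level, the endpoint shown equals the highest concentration tested. Otherwise, values were interpolated linearly from a five-concentration, 48-hour dose response in 96-well plates. Abbreviation: GI50, concentration required for 50% inhibition of growth. TGI: total growth inhibition.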

Assays:
Test in all cases: inhibition of tumour cell growth, NCI panel, 48 h
CAKI-1 renal = tested on: CAKI-1 renal
DU-145 prostate = tested on: DU-145 prostate
SK-MEL-2 melanoma = tested on: SK-MEL-2 melanoma
MDA-MB-231 breast = tested on: MDA-MB-231 breast
PC-3 prostate = tested on: PC-3 prostate
MCF7 breast = tested on: MCF7 breast
HS 578T breast = tested on: HS 578T breast
MDA-MB-435 = tested on: MDA-MB-435
SW-620 colon = tested on: SW-620 colon
A549 NSCLC = tested on: A549 NSCLC
SF-268 CNS = tested on: SF-268 CNS
MALME-3M melanoma = tested on: MALME-3M melanoma
786-0 renal = tested on: 786-0 renal
HCC-2998 colon = tested on: HCC-2998 colon
U251 CNS = tested on: U251 CNS
SF-539 CNS = tested on: SF-539 CNS
IGROV1 ovarian = tested on: IGROV1 ovarian
HOP-92 NSCLC = tested on: HOP-92 NSCLC
RPMI-8226 leukemia = tested on: RPMI-8226 leukemia
SK-OV-3 ovarian = tested on: SK-OV-3 ovarian
UACC-257 melanoma = tested on: UACC-257 melanoma
OVCAR-8 ovarian = tested on: OVCAR-8 ovarian
HT29 colon = tested on: HT29 colon
M14 melanoma = tested on: M14 melanoma
K-562 leukemia = tested on: K-562 leukemia
SNB-75 CNS = tested on: SNB-75 CNS
KM12 colon = tested on: KM12 colon
HOP-62 NSCLC = tested on: HOP-62 NSCLC
OVCAR-3 ovarian = tested on: OVCAR-3 ovarian
SF-295 CNS = tested on: SF-295 CNS
SNB-19 CNS = tested on: SNB-19 CNS
OVCAR-4 ovarian = tested on: OVCAR-4 ovarian
COLO 205 colon = tested on: COLO 205 colon
NCI-H226 lung = tested on: NCI-H226 lung
T-47D breast = tested on: T-47D breast
EKVX NSCLC = tested on: EKVX NSCLC
A498 renal = tested on: A498 renal
NCI-H460 lung = tested on: NCI-H460 lung
SK-MEL-28 melanoma = tested on: SK-MEL-28 melanoma
BT-549 breast = tested on: BT-549 breast
RXF 393 renal = tested on: RXF 393 renal
HCT-116 colon = tested on: HCT-116 colon
UACC-62 melanoma = tested on: UACC-62 melanoma
SR leukemia = tested on: SR leukemia
NCI-H522 lung = tested on: NCI-H522 lung
UO-31 renal = tested on: UO-31 renal
NCI-H23 lung = tested on: NCI-H23 lung
SN12C renal = tested on: SN12C renal
TK-10 renal = tested on: TK-10 renal
ACHN renal = tested on: ACHN renal
LOX IMVI melanoma = tested on: LOX IMVI melanoma
SK-MEL-5 melanoma = tested on: SK-MEL-5 melanoma
OVCAR-5 ovarian = tested on: OVCAR-5 ovarian
HCT-15 colon = tested on: HCT-15 colon
NCI/ADR-RES ovarian = tested on: NCI/ADR-RES ovarian

NS(=O)(=O)CC1CC[CH-]CC1.[Cl-].[Cl-].[Cl-].[Cl-].[Cl-].[Sb+5].c1ccncc1
GI50 (CAKI-1 renal): > 100 µM | TGI (CAKI-1 renal): > 100 µM | GI50 (DU-145 prostate): > 100 µM | TGI (DU-145 prostate): > 100 µM | GI50 (SK-MEL-2 melanoma): > 100 µM | TGI (SK-MEL-2 melanoma): > 100 µM | GI50 (MDA-MB-231 breast): > 100 µM | TGI (MDA-MB-231 breast): > 100 µM | GI50 (PC-3 prostate): > 100 µM | TGI (PC-3 prostate): > 100 µM | GI50 (MCF7 breast): > 100 µM | TGI (MCF7 breast): > 100 µM | GI50 (HS 578T breast): > 100 µM | TGI (HS 578T breast): > 100 µM | GI50 (MDA-MB-435): > 100 µM | TGI (MDA-MB-435): > 100 µM | GI50 (SW-620 colon): > 100 µM | TGI (SW-620 colon): > 100 µM | GI50 (A549 NSCLC): > 100 µM | TGI (A549 NSCLC): > 100 µM | GI50 (SF-268 CNS): > 100 µM | TGI (SF-268 CNS): > 100 µM | GI50 (MALME-3M melanoma): > 100 µM | TGI (MALME-3M melanoma): > 100 µM | GI50 (786-0 renal): > 100 µM | TGI (786-0 renal): > 100 µM | GI50 (HCC-2998 colon): > 100 µM | TGI (HCC-2998 colon): > 100 µM | GI50 (U251 CNS): > 100 µM | TGI (U251 CNS): > 100 µM | GI50 (SF-539 CNS): > 100 µM | TGI (SF-539 CNS): > 100 µM | GI50 (IGROV1 ovarian): > 100 µM | TGI (IGROV1 ovarian): > 100 µM | GI50 (HOP-92 NSCLC): > 100 µM | TGI (HOP-92 NSCLC): > 100 µM | GI50 (RPMI-8226 leukemia): > 100 µM | TGI (RPMI-8226 leukemia): > 100 µM | GI50 (SK-OV-3 ovarian): > 100 µM | TGI (SK-OV-3 ovarian): > 100 µM | GI50 (UACC-257 melanoma): > 100 µM | TGI (UACC-257 melanoma): > 100 µM | GI50 (OVCAR-8 ovarian): > 100 µM | TGI (OVCAR-8 ovarian): > 100 µM | GI50 (HT29 colon): > 100 µM | TGI (HT29 colon): > 100 µM | GI50 (M14 melanoma): > 100 µM | TGI (M14 melanoma): > 100 µM | GI50 (K-562 leukemia): > 100 µM | TGI (K-562 leukemia): > 100 µM | GI50 (SNB-75 CNS): > 100 µM | TGI (SNB-75 CNS): > 100 µM | GI50 (KM12 colon): > 100 µM | TGI (KM12 colon): > 100 µM | GI50 (HOP-62 NSCLC): > 100 µM | TGI (HOP-62 NSCLC): > 100 µM | GI50 (OVCAR-3 ovarian): > 100 µM | TGI (OVCAR-3 ovarian): > 100 µM | GI50 (SF-295 CNS): > 100 µM | TGI (SF-295 CNS): > 100 µM | GI50 (SNB-19 CNS): > 100 µM | TGI (SNB-19 CNS): > 100 µM | GI50 (OVCAR-4 ovarian): > 100 µM | TGI (OVCAR-4 ovarian): > 100 µM | GI50 (COLO 205 colon): > 100 µM | TGI (COLO 205 colon): > 100 µM | GI50 (NCI-H226 lung): > 100 µM | TGI (NCI-H226 lung): > 100 µM | GI50 (T-47D breast): > 100 µM | TGI (T-47D breast): > 100 µM | GI50 (EKVX NSCLC): > 100 µM | TGI (EKVX NSCLC): > 100 µM | GI50 (A498 renal): > 100 µM | TGI (A498 renal): > 100 µM | GI50 (NCI-H460 lung): > 100 µM | TGI (NCI-H460 lung): > 100 µM | GI50 (SK-MEL-28 melanoma): > 100 µM | TGI (SK-MEL-28 melanoma): > 100 µM | GI50 (BT-549 breast): > 100 µM | TGI (BT-549 breast): > 100 µM | GI50 (RXF 393 renal): > 100 µM | TGI (RXF 393 renal): > 100 µM | GI50 (HCT-116 colon): > 100 µM | TGI (HCT-116 colon): > 100 µM | GI50 (UACC-62 melanoma): > 100 µM | TGI (UACC-62 melanoma): > 100 µM | GI50 (SR leukemia): > 100 µM | TGI (SR leukemia): > 100 µM | GI50 (NCI-H522 lung): > 100 µM | TGI (NCI-H522 lung): > 100 µM | GI50 (UO-31 renal): > 100 µM | TGI (UO-31 renal): > 100 µM | GI50 (NCI-H23 lung): > 100 µM | TGI (NCI-H23 lung): > 100 µM | GI50 (SN12C renal): > 100 µM | TGI (SN12C renal): > 100 µM | GI50 (TK-10 renal): > 100 µM | TGI (TK-10 renal): > 100 µM | GI50 (ACHN renal): > 100 µM | TGI (ACHN renal): > 100 µM | GI50 (LOX IMVI melanoma): > 100 µM | TGI (LOX IMVI melanoma): > 100 µM | GI50 (SK-MEL-5 melanoma): > 100 µM | TGI (SK-MEL-5 melanoma): > 100 µM | GI50 (OVCAR-5 ovarian): > 100 µM | TGI (OVCAR-5 ovarian): > 100 µM | GI50 (HCT-15 colon): > 100 µM | TGI (HCT-15 colon): > 100 µM | GI50 (NCI/ADR-RES ovarian): > 100 µM | TGI (NCI/ADR-RES ovarian): > 100 µM
